Each compound was assayed on NCI-H226 (assay: 72H TEAD Proliferation Assay (Cell Titer Glo 2.0)). Conditions: Homo sapiens, CTG 2.0, cell line not given (NCI-H226 responsive, NCI-H28 non-responsive).
Type: cell-based
Summary of the method: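 Growth read-out is ATP luminescence (CellTiter-Glo 2.0) after 72 h compound exposure, corrected for no-CTG background and day-0 values, with GI50 from nonlinear regression. Sensitive line NCI-H226 (NF2-deficient); non-responsive NCI-H28 (NF2 wild type) distinguishes TEAD-driven from nonspecific growth inhibition.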
For O=C(/C=C/CF)NCc1nc(-c2ccc(C(F)(F)F)cc2)c2cccnc2n1 [I-308, (E)-4-fluoro-N-((4-(4-(trifluoromethyl)phenyl)pyrido[2,3-d]pyrimidin-2-yl)methyl)but-2-enamide], the GI50 was no more than 1000 nM.

Same assay, conditions: Homo sapiens, NCI-H226, 72 h, CTG 2.0, cell line not given (NCI-H226 responsive, NCI-H28 non-responsive)
COc1cccc([C@H](C)NC(=O)c2ccc3c(C)cc(-c4ccc(C(F)(F)F)cc4)nc3c2)c1 [I-268, (S)—N-(1-(3-methoxyphenyl)ethyl)-4-methyl-2-(4-(trifluoromethyl)phenyl)quinoline-7-carboxamide] showed a GI50 of no more than 1000 nM.
Compound Cc1cc(-c2ccc(C(F)(F)F)cc2)nc2cc(C(=O)N[C@@H](C)c3cccc(O)c3)ccc12 [I-269, (S)—N-(1-(3-hydroxyphenyl)ethyl)-4-methyl-2-(4-(trifluoromethyl)phenyl)quinoline-7-carboxamide] has a GI50 of no more than 1000 nM.
COCc1cc(-c2ccc(C(F)(F)F)cc2)nc2cc(C(=O)O)ccc12 [I-270, 4-(methoxymethyl)-2-(4-(trifluoromethyl)phenyl)quinoline-7-carboxylic acid] was tested, and the GI50 was no more than 1000 nM.
Work on COCc1cc(-c2ccc(C(F)(F)F)cc2)nc2cc(C(=O)N[C@H](C)CO)ccc12 [I-271, (R)—N-(1-hydroxypropan-2-yl)-4-(methoxymethyl)-2-(4-(trifluoromethyl)phenyl)quinoline-7-carboxamide] yielded a GI50 of 1000 to 5000 nM.
O=C(O)c1ccc2c(c1)nc(C13CC(C(F)(F)F)(C1)C3)c1cccn12 [I-272, 4-(3-(trifluoromethyl)bicyclo[1.1.1]pentan-1-yl)pyrrolo[1,2-a]quinoxaline-7-carboxylic acid] showed a GI50 of 1000 to 5000 nM.
With CC(C)(C)c1ccc(-c2nc3cc(C(=O)O)ccc3n3cc(OC(F)F)cc23)cc1 [I-274, 4-(4-(tert-butyl)phenyl)-2-(difluoromethoxy)pyrrolo[1,2-a]quinoxaline-7-carboxylic acid] the GI50 was no more than 1000 nM.
O=C(O)c1ccc2c(c1)nc(-c1ccc(C(F)(F)F)cc1)c1cc(OC(F)F)cn12 [I-275, 2-(difluoromethoxy)-4-(4-(trifluoromethyl)phenyl)pyrrolo[1,2-a]quinoxaline-7-carboxylic acid] showed a GI50 of no more than 1000 nM.
O=C(O)c1ccc2c(c1)nc(N1CCC3(CC1)CC3)c1ccnn12 [I-277, 4-(6-azaspiro[2.5]octan-6-yl)pyrazolo[1,5-a]quinoxaline-7-carboxylic acid] showed a GI50 of 1000 to 5000 nM.
O=C(O)c1cc(CO)c2c(c1)nc(N1CCC3(CC1)CC3)c1cccn12 [I-278, 9-(hydroxymethyl)-4-(6-azaspiro[2.5]octan-6-yl)pyrrolo[1,2-a]quinoxaline-7-carboxylic acid] was tested, and the GI50 was 1000 to 5000 nM.
Compound CC(C)(C)c1ccc(-c2nc3cc(C(=O)O)cc(CO)c3n3cccc23)cc1 [I-279, 4-(4-(tert-butyl)phenyl)-9-(hydroxymethyl)pyrrolo[1,2-a]quinoxaline-7-carboxylic acid] has a GI50 of 1000 to 5000 nM.
With O=C(O)c1ccc2c(c1)nc(-c1ccc(C(F)(F)F)cc1)c1c(F)ccn12 [I-280, 3-fluoro-4-(4-(trifluoromethyl)phenyl)pyrrolo[1,2-a]quinoxaline-7-carboxylic acid] the GI50 was no more than 1000 nM.
O=C(O)c1cc2nc(N3CCC4(CC3)CC4)c3cccn3c2cn1 [I-281, 6-(6-azaspiro[2.5]octan-6-yl)pyrido[4,3-e]pyrrolo[1,2-a]pyrazine-3-carboxylic acid] showed a GI50 of 1000 to 5000 nM.
CC(C)(C)c1ccc(-c2nc3cc(C(=O)O)ncc3n3cccc23)cc1 [I-282, 6-(4-(tert-butyl)phenyl)pyrido[4,3-e]pyrrolo[1,2-a]pyrazine-3-carboxylic acid] was tested, and the GI50 was 1000 to 5000 nM.
In the case of O=C(O)c1ccc2c(c1)nc(N1CCC3(CC1)CC3)c1ncnn12 [I-285, 4-(6-azaspiro[2.5]octan-6-yl)-[1,2,4]triazolo[1,5-a]quinoxaline-7-carboxylic acid], the GI50 is reported as 1000 to 5000 nM.
For CC(C)(C)c1ccc(-c2nc3cc(C(=O)O)ccc3n3ncnc23)cc1 [I-287, 4-(4-(tert-butyl)phenyl)-[1,2,4]triazolo[1,5-a]quinoxaline-7-carboxylic acid], the GI50 was 1000 to 5000 nM.
Compound C=CC(=O)NCc1cc2cccc(F)c2c(-c2ccc(C(F)(F)F)cc2)n1 [I-289, N-((8-fluoro-1-(4-(trifluoromethyl)phenyl)isoquinolin-3-yl)methyl)acrylamide] has a GI50 of no more than 1000 nM.
C=CC(=O)NCc1cc(-c2ccc(C(F)(F)F)cc2)nn2ccnc12 [I-290, N-((6-(4-(trifluoromethyl)phenyl)imidazo[1,2-b]pyridazin-8-yl)methyl)acrylamide] showed a GI50 of no more than 1000 nM.
For O=C(/C=C/CF)NCc1cn2ccnc2c(-c2ccc(C(F)(F)F)cc2F)n1 [I-291, (E)-4-fluoro-N-((8-(2-fluoro-4-(trifluoromethyl)phenyl)imidazo[1,2-a]pyrazin-6-yl)methyl)but-2-enamide], the GI50 was no more than 1000 nM.
C=CC(=O)NCc1nc(-c2ccc(C(F)(F)F)cc2)c2ccn(C)c2n1 [I-292, N-((7-methyl-4-(4-(trifluoromethyl)phenyl)-7H-pyrrolo[2,3-d]pyrimidin-2-yl)methyl)acrylamide] showed a GI50 of no more than 1000 nM.
C=CC(=O)NCc1cn2ccnc2c(OCc2cccc(C(F)(F)F)c2)n1 [I-294, N-((8-((3-(trifluoromethyl)benzyl)oxy)imidazo[1,2-a]pyrazin-6-yl)methyl) acrylamide] gave a GI50 of 1000 to 5000 nM.
For C=CC(=O)NCc1cc2ccc(F)cc2c(-c2ccc(C(F)(F)F)cc2)n1 [I-295, N-((7-fluoro-1-(4-(trifluoromethyl)phenyl)isoquinolin-3-yl)methyl)acrylamide], the GI50 was no more than 1000 nM.
C=CC(=O)NCc1cc2cc(F)ccc2c(-c2ccc(C(F)(F)F)cc2)n1 [I-299, N-((6-fluoro-1-(4-(trifluoromethyl)phenyl)isoquinolin-3-yl)methyl)acrylamide] was tested, and the GI50 was no more than 1000 nM.
For C=CC(=O)NCc1cn2ccnc2c(N(C)Cc2ccc(C(F)(F)F)cc2)n1 [I-300, N-((8-(methyl(4-(trifluoromethyl)benzyl)amino)imidazo[1,2-a]pyrazin-6-yl)methyl)acrylamide], the GI50 was no more than 1000 nM.
C=CC(=O)NCc1cc2ccccc2c(-c2ccc(C(F)(F)F)cc2F)n1 [I-301, N-((1-(2-Fluoro-4-(trifluoromethyl)phenyl)isoquinolin-3-yl)methyl)acrylamide] gave a GI50 of no more than 1000 nM.
For C=CC(=O)NCc1cc2ccccc2c(-c2ccc(C(F)(F)F)nc2)n1 [I-302, N-((1-(6-(trifluoromethyl)pyridin-3-yl)isoquinolin-3-yl)methyl)acrylamide], the GI50 was no more than 1000 nM.
Compound C=CC(=O)NCc1nc(-c2ccc(C(F)(F)F)cc2F)c2ccccc2n1 [I-303, N-((4-(2-fluoro-4-(trifluoromethyl)phenyl)quinazolin-2-yl)methyl)acrylamide] has a GI50 of no more than 1000 nM.
Work on C=CC(=O)NCc1nc(-c2ccc(C(F)(F)F)cc2)c2cccnc2n1 [I-304, N-((4-(4-(trifluoromethyl)phenyl)pyrido[2,3-d]pyrimidin-2-yl)methyl)acrylamide] yielded a GI50 of no more than 1000 nM.
For C=CC(=O)NCc1nc(-c2ccc(C(F)(F)F)cc2)c2ncccc2n1 [I-305, N-((4-(4-(trifluoromethyl)phenyl)pyrido[3,2-d]pyrimidin-2-yl)methyl)acrylamide], the GI50 was no more than 1000 nM.
Compound C=CC(=O)NCc1nc(-c2ccc(C(F)(F)F)cc2F)c2ncccc2n1 [I-306, N-((4-(2-fluoro-4-(trifluoromethyl)phenyl)pyrido[3,2-d]pyrimidin-2-yl)methyl)acrylamide] has a GI50 of no more than 1000 nM.
C=C(F)C(=O)NCc1nc(-c2ccc(C(F)(F)F)cc2)c2cccnc2n1 [I-307, 2-fluoro-N-((4-(4-(trifluoromethyl)phenyl)pyrido[2,3-d]pyrimidin-2-yl)methyl)acrylamide] was tested, and the GI50 was no more than 1000 nM.
C=CC(=O)NCc1nc(-c2ccc(C(F)(F)F)cc2)c2ccncc2n1 [I-309, N-((4-(4-(trifluoromethyl)phenyl)pyrido[3,4-d]pyrimidin-2-yl)methyl)acrylamide] showed a GI50 of no more than 1000 nM.
CNS(=O)(=O)c1ccc2c(c1)nc(-c1ccc(C(C)(C)C)cc1)c1cccn12 [I-310, 4-(4-(tert-butyl)phenyl)-N-methylpyrrolo[1,2-a]quinoxaline-7-sulfonamide] showed a GI50 of 1000 to 5000 nM.
In the case of CC(C)(C)c1ccc(-c2nc3cc(S(N)(=O)=O)ccc3n3cccc23)cc1 [I-311, 4-(4-(tert-butyl)phenyl)pyrrolo[1,2-a]quinoxaline-7-sulfonamide], the GI50 is reported as 1000 to 5000 nM.
Compound C=CC(=O)Nc1ccc2c(c1)nc(-c1ccc(C(F)(F)F)cn1)c1nccn12 [I-312, N-(4-(5-(trifluoromethyl)pyridin-2-yl)imidazo[1,2-a]quinoxalin-7-yl)acrylamide] has a GI50 of no more than 1000 nM.
C=CC(=O)NCc1cn2ccnc2c(-c2ccc(C(F)(F)F)cn2)n1 [I-313, N-((8-(5-(trifluoromethyl)pyridin-2-yl)imidazo[1,2-a]pyrazin-6-yl)methyl)acrylamide] gave a GI50 of 1000 to 5000 nM.
In the case of C=CC(=O)NCc1cn2cccc2c(-c2ccc(C(F)(F)F)cn2)n1 [I-314, N-((1-(5-(Trifluoromethyl)pyridin-2-yl)pyrrolo[1,2-a]pyrazin-3-yl)methyl)acrylamide], the GI50 is reported as no more than 1000 nM.
Compound C=CC(=O)NCc1cc2nccn2c(-c2ccc(C(F)(F)F)cc2)n1 [I-315, N-((5-(4-(trifluoromethyl)phenyl)imidazo[1,2-c]pyrimidin-7-yl)methyl)acrylamide] has a GI50 of no more than 1000 nM.
With C=CC(=O)NCc1cn2nccc2c(-c2ccc(C(F)(F)F)cc2)n1 [I-316, N-((4-(4-(trifluoromethyl)phenyl)pyrazolo[1,5-a]pyrazin-6-yl)methyl)acrylamide] the GI50 was no more than 1000 nM.
In the case of C=CC(=O)NCc1cn2cnnc2c(-c2ccc(C(F)(F)F)cc2)n1 [I-317, N-((8-(4-(trifluoromethyl)phenyl)-[1,2,4]triazolo[4,3-a]pyrazin-6-yl)methyl)acrylamide], the GI50 is reported as 1000 to 5000 nM.
C=CC(=O)NCc1cn2c(F)ccc2c(-c2ccc(C(F)(F)F)cc2)n1 [I-318, N-((6-Fluoro-1-(4-(trifluoromethyl)phenyl)pyrrolo[1,2-a]pyrazin-3-yl)methyl)acrylamide] gave a GI50 of no more than 1000 nM.
For C=CC(=O)NCc1cn2cccc2c(-c2ccc(C(F)(F)F)cc2)n1 [I-319, N-((1-(4-(trifluoromethyl)phenyl)pyrrolo[1,2-a]pyrazin-3-yl)methyl)acrylamide], the GI50 was no more than 1000 nM.
